Experiment in all cases: Cell proliferation assay (CCK-8)
Holding throughout (type): cell-based

The subject of assay [1] is human leukemia K562 cells. Particulars: K562, 72 h. An excerpt:
(§1) CCK-8 method: The CCK-8 method is a highly sensitive, non-radioactive colorimetric assay for the determination of the number of viable cells in cell proliferation or cytotoxicity assays. The orange formazan dye produced by the bioreduction of CCK-8 by intracellular dehydrogenase is soluble in the cell culture medium, and the amount of formazan dye produced is proportional to the number of living cells. The kit used in this method is the tetrazolium salt-WST-8 (2-(2-methoxy-4-nitrophenyl)-3-(4-nitrophenyl)-5-(2,4-disulfophenyl)-2H-tetrazolium monosodium salt) developed by Dojindo Chemical Research Institute (Dojindo), which is capable of being reduced to a water-soluble formazan dye in the presence of the electronic carrier 1-Methoxy PMS.
(§2) Human cervical cancer Hela cells, pancreatic cancer PANC-1 cells, esophageal cancer Eca-109 cells, human leukemia K562 cells, human lung cancer A549 cells, human liver cancer HepG2 cells, human gastric cancer MKN-45 cells, human breast cancer MCF7 cells were cultured in DMEM medium containing 10% FBS (fetal bovine serum), 100 U/mL penicillin and 100 μg/ml streptomycin. Hepatocellular carcinoma cells Bel-7402 were cultured in RPMI-1640 medium containing 10% FBS (fetal bovine serum), 100 U/ml penicillin and 100 μg/ml streptomycin. All cells were placed in a cell culture incubator at 37° C. with 5% CO2. Cells fluid was changed every 3-5 days, and after 80% cell fusion, trypsin digestion and passaging were performed to keep the cells in good logarithmic growth phase.
(§3) All the samples to be tested were dissolved in DMSO.
(§4) Cells in logarithmic growth phase were inoculated in 96-well plates with 5000 cells/well respectively, and after 24 h of incubation, samples were added (final concentrations as shown in the table), and biplicate wells were set up for each sample. The amount of solvent of DMSO was not higher than 2‰. After 72 h, 10 μL of CCK-8 solution was added to each well and incubated for 1.5˜3 h at 37° C. The OD value at 450 nm was measured on an plate reader.
(§5) Inhibition rate (%)=(1−[(OD450 dosed well−OD450 blank well)/(OD450 control well−OD450 blank well)])×100%
(§6) The fitted IC50 values were calculated using the log (inhibitor) vs. response-Variable slop analysis method in GraphPad Prism software.

Assay [2] deals with human gastric cancer MKN-45 cells. The settings on record: MKN-45, 72 h.
Description: as §1, §2, §3, §4, §5, §6

The test system of assay [3] is pancreatic cancer PANC-1 cells. The settings on record: Homo sapiens, PANC-1, 72 h.
Description: as §1, §2, §3, §4, §5, §6

For assay [4], the system named is human lung cancer A549 cells. Particulars: A549, 72 h.
Description: as §1, §2, §3, §4, §5, §6

The test system of assay [5] is human breast cancer MCF7 cells. Particulars: MCF7, 72 h.
Description: as §1, §2, §3, §4, §5, §6

Assay [6] deals with esophageal cancer Eca-109 cells. Particulars: Homo sapiens, Eca-109, 72 h.
Description: as §1, §2, §3, §4, §5, §6

Assay [7] relates to human liver cancer HepG2 cells. Particulars: HepG2, 72 h.
Description: as §1, §2, §3, §4, §5, §6

Assay [8] concerns Human cervical cancer Hela cells. The settings on record: 72 h.
Description: as §1, §2, §3, §4, §5, §6

Molecules are shown by their SMILES.

As for `Cc1ccc(/C=C/C(=O)O[C@@H]2/C=C/C(=O)O[C@@H](C)CCC/C=C/[C@@H]3C[C@H](O)C[C@H]32)cc1` [Compound 7b, 4-O-(4-methylcinnamic acid)acyl BFA], the IC50 (in general, the concentration that inhibits the measured activity by half) in assay [1] is 1000 to 10000 nM; in assay [2], 100 to 1000 nM; in assay [3], 100 to 1000 nM; in assay [4], 100 to 1000 nM; in assay [5], 100 to 1000 nM; in assay [6], 100 to 1000 nM. In addition, the 50% inhibitory concentration (IC50) in assay [7] lay in the range of 100 to 1000 nM; in assay [8] it was 1000 to 10000 nM.

For `Cc1ccc(/C=C/C(=O)O[C@@H]2C[C@@H]3[C@H](/C=C/CCC[C@H](C)OC(=O)/C=C/[C@H]3OC(=O)/C=C/c3ccc(C)cc3)C2)cc1` [Compound 7c, 4,7-O-bis(4-methylcinnamic acid)acyl BFA], the concentration for half-maximal inhibition (IC50) is 1000 to 10000 nM in assay [1]; 100 to 1000 nM in assay [2]; 1000 to 10000 nM in assay [3]; 1000 to 10000 nM in assay [4]; 1000 to 10000 nM in assay [5]; 100 to 1000 nM in assay [6]. Also, the IC50 in assay [7] and in assay [8] was 1000 to 10000 nM in each case.

For `Cc1ccccc1/C=C/C(=O)O[C@@H]1C[C@H]2[C@H](O)/C=C/C(=O)O[C@@H](C)CCC/C=C/[C@@H]2C1` [Compound 8a, 7-O-(2-methylcinnamic acid)acyl BFA], the IC50 in assay [1] is 1000 to 10000 nM; in assay [2] it was 100 to 1000 nM; in assay [3] it was 100 to 1000 nM; in assay [4], 100 to 1000 nM; in assay [5], 100 to 1000 nM; in assay [6], 100 to 1000 nM. Also, the IC50 in assay [7] and in assay [8] was 1000 to 10000 nM each time.

In the case of `Cc1ccccc1/C=C/C(=O)O[C@@H]1/C=C/C(=O)O[C@@H](C)CCC/C=C/[C@@H]2C[C@H](O)C[C@H]21` [Compound 8b, 4-O-(2-methylcinnamic acid)acyl BFA], the half-inhibitory concentration (IC50) in assay [1] is 1000 to 10000 nM; in assay [2], 100 to 1000 nM; in assay [3], 100 to 1000 nM; in assay [4], 100 to 1000 nM; in assay [5] it was 100 to 1000 nM; in assay [6], 100 to 1000 nM. The IC50 fell in the range of 100 to 1000 nM in assay [7] and 1000 to 10000 nM in assay [8].

With `Cc1ccccc1/C=C/C(=O)O[C@@H]1C[C@@H]2[C@H](/C=C/CCC[C@H](C)OC(=O)/C=C/[C@H]2OC(=O)/C=C/c2ccccc2C)C1` [Compound 8c, 4,7-O-bis(2-methylcinnamic acid)acyl BFA], the IC50 in assay [1] is 1000 to 10000 nM; in assay [2] it was 100 to 1000 nM; in assay [3] it was 1000 to 10000 nM; in assay [4], 1000 to 10000 nM; in assay [5], 1000 to 10000 nM; in assay [6], 100 to 1000 nM. For the same compound, the 50% inhibitory concentration (IC50) in assay [7] and in assay [8] was 1000 to 10000 nM each time.

On to `C[C@H]1CCC/C=C/[C@@H]2C[C@H](OC(=O)/C=C/c3ccc4c(c3)OCO4)C[C@H]2[C@H](O)/C=C/C(=O)O1` [Compound 9a, 7-O—((E)-3-(benzo[d][1,3]dioxa-5-yl)acrylic acid)acyl BFA], for which the half-maximal inhibitory concentration (IC50) lay within 100 to 1000 nM in assay [1]; 100 to 1000 nM in assay [2]; 100 to 1000 nM in assay [3]; 100 to 1000 nM in assay [4]; 100 to 1000 nM in assay [5]; 1000 to 10000 nM in assay [6]. The half-maximal inhibitory concentration (IC50) in assay [7] and in assay [8] was 1000 to 10000 nM each time.

As to `C[C@H]1CCC/C=C/[C@@H]2C[C@H](OC(=O)/C=C/c3ccc4c(c3)OCO4)C[C@H]2C(OC(=O)/C=C/c2ccc3c(c2)OCO3)/C=C/C(=O)O1` (some centres unmarked) [Compound 9c, 4,7-O-bis((E)-3-(benzo[d][1,3]dioxa-5-yl)acrylic acid)acyl BFA], the half-maximal inhibitory concentration (IC50) in assay [1] lay in the range of 100 to 1000 nM; in assay [2] it was 100 to 1000 nM; in assay [3], 1000 to 10000 nM; in assay [4] it was 1000 to 10000 nM; in assay [5], 1000 to 10000 nM; in assay [6], 1000 to 10000 nM. The IC50 in assay [7] and in assay [8] was 1000 to 10000 nM throughout.

On to `COc1cc(/C=C/C(=O)O[C@@H]2C[C@H]3[C@H](O)/C=C/C(=O)O[C@@H](C)CCC/C=C/[C@@H]3C2)cc(OC)c1OC` [Compound 11a, 7-O-(3,4,5-trimethoxycinnamic acid)acyl BFA], for which the half-inhibitory concentration (IC50) in assay [1] was in the range of 100 to 1000 nM; in assay [2], 100 to 1000 nM; in assay [3] it was 100 to 1000 nM; in assay [4] it was 100 to 1000 nM; in assay [5], 100 to 1000 nM; in assay [6] it was 1000 to 10000 nM. Further, the half-inhibitory concentration (IC50) in assay [7] was 100 to 1000 nM; in assay [8], 1000 to 10000 nM.

For the compound `COc1cc(/C=C/C(=O)O[C@@H]2/C=C/C(=O)O[C@@H](C)CCC/C=C/[C@@H]3C[C@H](O)C[C@H]32)cc(OC)c1OC` [Compound 11b, 4-O-(3,4,5-trimethoxycinnamic acid)acyl BFA], the IC50 in assay [1] is 100 to 1000 nM; in assay [2], 100 to 1000 nM; in assay [3], 100 to 1000 nM; in assay [4], 100 to 1000 nM; in assay [5] it was 100 to 1000 nM; in assay [6], 1000 to 10000 nM. Also, the values for the concentration for half-maximal inhibition (IC50) in assay [7] and in assay [8] were 100 to 1000 nM and 1000 to 10000 nM, respectively.

For the compound `COc1cc(/C=C/C(=O)O[C@@H]2C[C@@H]3[C@H](/C=C/CCC[C@H](C)OC(=O)/C=C/[C@H]3OC(=O)/C=C/c3cc(OC)c(OC)c(OC)c3)C2)cc(OC)c1OC` [Compound 11c, 4,7-O-bis(3,4,5-trimethoxycinnamic acid)acyl BFA], the IC50 in assay [1] lay within 100 to 1000 nM; in assay [2], 1000 to 10000 nM; in assay [3], 1000 to 10000 nM; in assay [4] it was 100 to 1000 nM; in assay [5] it was 1000 to 10000 nM; in assay [6] it was 1000 to 10000 nM. In addition, the IC50 in assay [7] and in assay [8] was 1000 to 10000 nM in each case.

As for `C[C@H]1CCC/C=C/[C@@H]2C[C@H](OC(=O)/C=C/c3ccc(C(F)(F)F)cc3)C[C@H]2[C@H](O)/C=C/C(=O)O1` [Compound 13a, 7-O-(4-trifluoromethylcinnamic acid)acyl BFA], the IC50 in assay [1], in assay [2], in assay [3], in assay [4], in assay [5] and in assay [6] was 100 to 1000 nM throughout. In addition, the IC50 in assay [7] and in assay [8] was 100 to 1000 nM in each case.

As to `C[C@H]1CCC/C=C/[C@@H]2C[C@H](O)C[C@H]2[C@H](OC(=O)/C=C/c2ccc(C(F)(F)F)cc2)/C=C/C(=O)O1` [Compound 13b, 4-O-(4-trifluoromethylcinnamic acid)acyl BFA], the concentration for half-maximal inhibition (IC50) in assay [1], in assay [2], in assay [3], in assay [4], in assay [5] and in assay [6] was 100 to 1000 nM each time. For the same compound, the 50% inhibitory concentration (IC50) in assay [7] and in assay [8] was 100 to 1000 nM in each case.

With `C[C@H]1CCC/C=C/[C@@H]2C[C@H](OC(=O)/C=C/c3ccc(C(F)(F)F)cc3)C[C@H]2[C@H](OC(=O)/C=C/c2ccc(C(F)(F)F)cc2)/C=C/C(=O)O1` [Compound 13c, 4,7-O-bis(4-trifluoromethylcinnamic acid)acyl BFA], the IC50 lay in the range of 100 to 1000 nM in assay [1]; 1000 to 10000 nM in assay [2]; 1000 to 10000 nM in assay [3]; 100 to 1000 nM in assay [4]; 1000 to 10000 nM in assay [5]; 1000 to 10000 nM in assay [6]. Also, the IC50 in assay [7] and in assay [8] was 1000 to 10000 nM throughout.

The values above are taken from patent US20220064138A1, “MACROLIDE BREFELDIN A ESTER DERIVATIVES AND USE THEREOF” (OCEAN UNIVERSITY OF CHINA, priority 2019, published 2022).
